These results are taken from patent US20240269304A1, “BCL-XL INHIBITOR ANTIBODY-DRUG CONJUGATES AND METHODS OF USE THEREOF” (Novartis AG, priority 2020, published 2024).

As usually defined, the IC50 is the concentration that gives 50% inhibition.

For the first experiment, the system named is NCI-H1650. Nature of the experiment: CellTiter Glo 3D spheroid proliferation/survival, 5 days, NCI-H1650, 0.0005-500 nM (Example 10). The conditions noted are these: spheroids. Format: cell-based, human. The method, then:
One target was assessed: EGFR.
The ability of the BCL-xL antibody drug conjugates to inhibit cell proliferation and survival was assessed using the Promega CellTiter-Glo® proliferation assay.
Cell lines were cultured in media that is optimal for their growth at 5% CO2, 37° C. in a tissue culture incubator. Prior to seeding for the proliferation assay, the cells were split at least 2 days before the assay to ensure optimal growth density. […] Cell viability and cell density were determined using a cell counter (Vi-Cell XR Cell Viability Analyzer, Beckman Coulter).
Cells were seeded at a density of 3,000 cells per well in 45 uL of standard growth media. Plates were spun in a centrifuge for 5 minutes and 1,000 RPM. Plates were incubated at 5% CO2, 37° C. for 72 hours in a tissue culture incubator. On the day of dosing, EGFR targeting BCL-xL ADCs were prepared at 1OX in standard growth media. The prepared drug treatments were then added to the cells resulting in final concentrations of 0.0005-500 nM and a final volume of 50 μL per well. Each drug concentration was tested in quadruplets. Plates were incubated at 5% CO2, 37° C. for 5 days in a tissue culture incubator.
Cell viability was assessed through the addition of 40 μL of CellTiter Glo 3D Cell Viability Assay substrate (Promega, cat #G9681), a reagent which lyses cells and measures total adenosine triphosphate (ATP) content. Wells were mixed thoroughly and plates were incubated at room temperature for 30 minutes to stabilize luminescent signals prior to reading using a luminescence reader (EnVision Multilabel Plate Reader, PerkinElmer).
To evaluate the effect of the drug treatments, luminescent counts from wells containing untreated cells (100% viability) were used to normalize treated samples. […] IC50 and Amax values were extrapolated from the resultant curves.
On the technique in general: In ATP-based viability assays light output follows the ATP content of the culture.
For `Cc1c(Nc2nc3ccccc3s2)nnc2c1CCCN2c1nc(C(=O)O)c(CCCOc2ccc(C#CCN(C)C(=O)COc3ccc(NC(=O)[C@H](CCCNC(N)=O)NC(=O)[C@@H](NC(=O)CCOCCN4C(=O)CC(C)C4=O)C(C)C)cc3CN(C)C(=O)OCc3cn(CCOCCOCCOCCOCCOCCOCCOCCOCCC(=O)O)nn3)cc2F)s1` (mixture of isomers) [EGFR1-L3C-P3], the “NCI-H1650 Amax (Span)” value was determined as 100.6.

Staying with this experiment, now noted: spheroids, 0.0005-500 nM.
In turn, `Cc1cc(N(C)c2nc(C(=O)O)c(CCCOc3ccc(C#CC[N+](C)(C)Cc4ccc(NC(=O)[C@H](CCCNC(N)=O)NC(=O)[C@@H](NC(=O)CCOCCN5C(=O)CC(C)C5=O)C(C)C)cc4CN(Cc4cn(CCOCCOCCOCCOCCOCCOCCOCCOCCC(=O)O)nn4)C(=O)OCc4cn(CCOCCOCCOCCOCCOCCOCCOCCOCCC(=O)O)nn4)cc3F)s2)nnc1Nc1nc2ccccc2s1` (mixture of isomers) [EGFR1-L10A-P2] had an IC50 of less than 6.17 nM.

Regarding `Cc1cc(N(CCCC(O)C[N+](C)(C)CCCS(=O)(=O)O)c2nc(C(=O)O)c(CCCOc3ccc(C#CCN(C)C(=O)OCc4ccccc4CN(C)C(=O)OCc4cn(CCOCCOCCOCCOCOCCOCCOCCOCCCC(=O)O)nn4)cc3F)s2)nnc1Nc1nc2ccccc2s1` (centres unmarked) [EGFR1-L3C-P4], the IC50 was greater than 500 nM.

`Cc1c(Nc2nc3ccccc3s2)nnc2c1CCCN2c1ccc(-c2cnn(CC34CC5(C)CC(C)(C3)CC(OCCN(CCCO)C(=O)OCc3ccc(NC(=O)[C@H](CCCNC(N)=O)NC(=O)[C@@H](NC(=O)CCOCCN6C(=O)C=CC6=O)C(C)C)cc3CN(C)C(=O)CCOCCOCCOCCOCCOCCOCCOCCOCCOCCOCCOCCOCCOCCOCCOCCOCCOCCOCCOCCOCCOCCOCCOCCOCCOCCC(=O)O)(C5)C4)c2C)c(C(=O)O)n1` [L11C-P25]: the “NCI-H1650 IC50 (nM)” value is “among the most potent”.

For the compound `Cc1cc(N(CCCN(C)C)c2nc(C(=O)O)c(CCCOc3ccc(C#CCN(C)C(=O)OCc4ccc(NC(=O)[C@H](CCCNC(N)=O)NC(=O)[C@@H](NC(=O)CCOCCN5C(=O)CC(C)C5=O)C(C)C)cc4COCc4cn(CCOCCOCCOCCOCCOCCOCCOCCOCCC(=O)O)nn4)cc3F)s2)nnc1Nc1nc2ccccc2s1` (mixture of isomers) [EGFR1-L7C-P6], the IC50 is greater than 500 nM.

`Cc1c(Nc2nc3ccccc3s2)nnc2c1CCCN2c1nc(C(=O)O)c(CCCOc2ccc(C#CC[N+](C)(C)Cc3ccc(NC(=O)[C@H](CCCNC(N)=O)NC(=O)[C@@H](NC(=O)CCOCCN4C(=O)CC(C)C4=O)C(C)C)cc3COCc3cn(CCOCCOCCOCCOCCOCCOCCOCCOCCC(=O)O)nn3)cc2F)s1` (mixture of isomers) [EGFR1-L7A-P1] had an IC50 of less than 0.686 nM.

In the case of `Cc1cc(N(CCCC(O)C[N+](C)(C)CCS(=O)(=O)O)c2nc(C(=O)O)c(CCCOc3ccc(C#CCN(C)C(=O)OCc4ccc(NC(=O)[C@H](CCCNC(N)=O)NC(=O)[C@@H](NC(=O)CCOCCN5C(=O)CC(C)C5=O)C(C)C)cc4)cc3F)s2)nnc1Nc1nc2ccccc2s1` (mixture of isomers) [EGFR1-L9C-P4], the IC50 was greater than 500 nM.

As for `Cc1cc(N(CCCC(O)C[N+](C)(C)C)c2nc(C(=O)O)c(CCCOc3ccc(C#CCN(C)C(=O)OCc4ccc(NC(=O)[C@H](CCCNC(N)=O)NC(=O)[C@@H](NC(=O)CCOCCN5C(=O)CC(C)C5=O)C(C)C)cc4)cc3F)s2)nnc1Nc1nc2ccccc2s1` (mixture of isomers) [EGFR1-L9C-P5], the IC50 was greater than 500 nM.

Consider `COCCOCCOCCOCCOCCOCCOCCOCCn1cc(COC(=O)N(Cc2cn(CCOCCOCCOCCOCCOCCOCCOCCOC)nn2)Cc2cc(NC(=O)[C@H](CCCNC(N)=O)NC(=O)[C@@H](NC(=O)CCOCCN3C(=O)CC(C)C3=O)C(C)C)ccc2C[N+](C)(C)CC#Cc2ccc(OCCCc3sc(N(C)c4cc(C)c(Nc5nc6ccccc6s5)nn4)nc3C(=O)O)c(F)c2)nn1` (mixture of isomers) [EGFR1-L1A-P2], for which the IC50 is less than 6.17 nM.

`COCCOCCOCCOCCOCCOCCOCCOCCn1cc(COC(=O)N(Cc2cn(CCOCCOCCOCCOCCOCCOCCOCCOC)nn2)Cc2cc(NC(=O)[C@H](CCCNC(N)=O)NC(=O)[C@@H](NC(=O)CCOCCN3C(=O)CC(C)C3=O)C(C)C)ccc2C[N+](C)(C)CC#Cc2ccc(OCCCc3sc(N4CCCc5c4nnc(Nc4nc6ccccc6s4)c5C)nc3C(=O)O)c(F)c2)nn1` (mixture of isomers) [EGFR1-L1A-P1] came in with an IC50 of less than 0.686 nM.

Consider `Cc1c(Nc2nc3ccccc3s2)nnc2c1CCCN2c1ccc(-c2cnn(CC34CC5(C)CC(C)(C3)CC(OCCN(CC[C@H](O)CO)C(=O)OCc3ccc(NC(=O)[C@H](CCCNC(N)=O)NC(=O)[C@@H](NC(=O)CCOCCN6C(=O)C=CC6=O)C(C)C)cc3CN(C)C(=O)CCOCCOCCOCCOCCOCCOCCOCCOCCOCCOCCOCCOCCOCCOCCOCCOCCOCCOCCOCCOCCOCCOCCOCCOCCOCCC(=O)O)(C5)C4)c2C)c(C(=O)O)n1` [L11C-P19], for which the “NCI-H1650 IC50 (nM)” value is “among the most potent”.

Take `Cc1cc(N(CCCC(O)C[N+](C)(C)C)c2nc(C(=O)O)c(CCCOc3ccc(C#CCN(C)C(=O)OCc4ccc(NC(=O)[C@H](CCCNC(N)=O)NC(=O)[C@@H](NC(=O)CCOCCN5C(=O)CC(C)C5=O)C(C)C)cc4CN(C)C(=O)OCc4cn(CCOCCOCCOCCOCCOCCOCCOCCOCCC(=O)O)nn4)cc3F)s2)nnc1Nc1nc2ccccc2s1` (mixture of isomers) [EGFR1-L3C-P5]: the 50% inhibitory concentration (IC50) is greater than 500 nM.

`Cc1cc(N(C)c2nc(C(=O)O)c(CCCOc3ccc(C#CCN(C)C(=O)OCc4ccc(NC(=O)[C@H](CCCNC(N)=O)NC(=O)[C@@H](NC(=O)CCOCCN5C(=O)CC(C)C5=O)C(C)C)cc4COCc4cn(CCOCCOCCOCCOCCOCCOCCOCCOCCC(=O)O)nn4)cc3F)s2)nnc1Nc1nc2ccccc2s1` (mixture of isomers) [EGFR1-L7C-P7] displayed an IC50 of less than 55.6 nM.

For the compound `Cc1c(Cc2nc3ccccc3s2)nnc2c1CCCN2c1nc(C(=O)O)c(CCCOc2ccc(C#CCN(C)C(=O)OCc3ccc(NC(=O)[C@H](CCCNC(N)=O)NC(=O)[C@@H](NC(=O)CCOCCN4C(=O)CC(C)C4=O)C(C)C)cc3CN(Cc3cn(CCOCCOCCOCCOCCOCCOCCOCCOCCC(=O)O)nn3)C(=O)OCc3cn(CCOCCOCCOCCOCCOCCOCCOCCOCCC(=O)O)nn3)cc2F)s1` (mixture of isomers) [EGFR1-L10C-P3], the IC50 is less than 18.5 nM.

As to `Cc1c(Nc2nc3ccccc3s2)nnc2c1CCCN2c1nc(C(=O)O)c(CCCOc2ccc(C#CCN(C)C(=O)OCc3ccc(NC(=O)[C@H](CCCNC(N)=O)NC(=O)[C@@H](NC(=O)CCOCCN4C(=O)CC(C)C4=O)C(C)C)cc3COCc3cn(CCOCCOCCOCCOCCOCCOCCOCCOCCC(=O)O)nn3)cc2F)s1` (mixture of isomers) [EGFR1-L7C-P3], the IC50 was less than 6.17 nM.

As to `COCCOCCOCCOCCOCCOCCOCCOCCn1cc(COC(=O)N(C)Cc2cc(NC(=O)[C@H](CCCNC(N)=O)NC(=O)[C@@H](NC(=O)CCOCCN3C(=O)CC(C)C3=O)C(C)C)ccc2C[N+](C)(C)CC#Cc2ccc(OCCCc3sc(N4CCCc5c4nnc(Nc4nc6ccccc6s4)c5C)nc3C(=O)O)c(F)c2)nn1` (mixture of isomers) [EGFR1-L4A-P1], the IC50 is less than 0.686 nM.

In turn, `COCOCCOCCOCCOCCOCCOCCOCCn1cc(COCc2cc(NC(=O)[C@@H](CCCNC(N)=O)NC(=O)[C@H](NC(=O)CCOCCN3C(=O)CC(C)C3=O)C(C)C)ccc2C[N+](C)(C)CC#Cc2ccc(OCCCc3sc(N4CCCc5c4nnc(Nc4nc6ccccc6s4)c5C)nc3C(=O)O)c(F)c2)nn1` (mixture of isomers) [EGFR1-L8A-P1] returned a half-maximal inhibitory concentration (IC50) of less than 2.06 nM.
